Columns and labels:
[1] = biological target: β-amyloid deposits; settings: values from cited documents; read-out: binding affinity (Ki); cited from earlier work
[2] = biological target: T1, β-amyloid (Aβ1-42) fibrils (Homo sapiens, UniProt P05067); assay: Inhibitory binding assay against [125I]TZDM on β-amyloid (Aβ1-42) fibrils; settings: Aβ1-42 fibrils 10 nM, [125I]TZDM 0.05 nM, 10% ethanol, room temperature 3 hours, nonspecific binding with 2 μM ThT; read-out: Ki, relative binding affinity to [125I]TZDM (112)
T1 construct: β-Amyloid peptide (Aβ1-42, 1 mg, Bachem); purchased Bachem
Procedure: (§1) β-Amyloid peptide (Aβ1-42, 1 mg, Bachem) was completely dissolved in 1 mL of DMSO, 9 mL of phosphate buffered saline (PBS) (pH 7.4) was added thereto and well mixed. The resulting mixture was incubated at 37° C. for 60 minutes to form β-amyloid fibrils, 0.5 mL was taken and transferred to each e-tube and placed into a refrigerator maintained at −80° C.
To determine whether β-amyloid peptide was properly formed into β-amyloid fibrils, 150 μL of 5 μM Thioflavin T (ThT) was added to 50 μL of incubated β-amyloid fibrils, the fluorescence intensity of ThT binding specifically to β-amyloid fibrils at excitation/emission wavelengths (λex/λem), e.g., 450 nm/480 nm, was detected using a spectrometer.
0.850 mL of 10% Ethanol was placed into 12 mm×75 mm borosilicate test tubes, and 50 μL of β-amyloid (Aβ1-42) fibrils were added such that the final reaction concentration became 10 nM. […] Here, the nonspecific binding was performed using 2 μM Thioflavin T (ThT).

[3] = biological target: T1, β-amyloid (Aβ1-42) fibrils; assay: Dissociation constant (Kd) of [125I]TZDM on β-amyloid fibrils; settings: Aβ1-42 fibrils 10 nM, 10% ethanol, room temperature 3 hours, nonspecific binding with 2 μM ThT
Procedure: as §1
Here, the nonspecific binding was performed using 2 μM Thioflavin T (ThT).

T1 sequence (P05067 672-713 limits assumed): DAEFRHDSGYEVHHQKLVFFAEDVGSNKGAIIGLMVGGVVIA

Structure (SMILES)	Ki [2]	melting point	Ki [1]	Kd [3]
[11CH3]Nc1ccc(-c2nc3ccc(O)cc3s2)cc1 [Control Group]	–	–	2.8 nM	–
CN(C)c1ccc(-c2cc3ccc(OCCCF)cc3s2)cc1 [Example 17, 2-[4-(N,N-dimethylamino)phenyl]-6-(3-fluoropropoxy)benzothiophene]	7.41 nM	177.7 to 183 °C	–	–
CC(=C(C#N)C#N)c1ccc2cc(N(C)CCF)ccc2c1 [[^18F]FDDNP]	–	–	0.12 nM	–
CN(C)c1ccc(-c2cn3cc(I)ccc3n2)cc1 [[^123I/^125I]IMPY]	–	–	15 nM	–
CN(C)c1ccc(-c2nc3ccc([125I])cc3s2)cc1 [[^125I]TZDM, 2-[4-(N,N-dimethylamino)phenyl]-6-[^125I]iodobenzothiazole]	–	–	–	0.13 nM

Further lines, with some results ahead:

Ki [2]	melting point	Structure (SMILES)	Ki [1]	Kd [3]
1.07 nM	265 to 265.2 °C	O=[N+]([O-])c1ccc(-c2cc3ccc(O)cc3s2)cc1 [Example 4, 2-(4-nitrophenyl)-6-hydroxybenzothiophene]	–	–
0.64 nM	119.6 to 123.2 °C	Nc1ccc(-c2cc3ccc(OCCCF)cc3s2)cc1 [Example 10, 2-(4-aminophenyl)-6-(3-fluoropropoxy)benzothiophene]	–	–
0.064 nM	156.9 to 159.7 °C	CNc1ccc(-c2cc3ccc(OCCF)cc3s2)cc1 [Example 12, 2-[4-(N-monomethylamino)phenyl]-6-(2-fluoroethoxy)benzothiophene]	–	–
0.27 nM	121.4 to 123.1 °C	CNc1ccc(-c2cc3ccc(OCCCF)cc3s2)cc1 [Example 13, 2-[4-(N-monomethylamino)phenyl]-6-(3-fluoropropoxy)benzothiophene]	–	–
0.079 nM	183.9 to 195.9 °C	CN(C)c1ccc(-c2cc3ccc(OCCF)cc3s2)cc1 [Example 16, 2-[4-(N,N-dimethylamino)phenyl]-6-(2-fluoroethoxy)benzothiophene]	–	–
